# In patent US20200270588A1, “GLUCOSYL TRANSFERASE POLYPEPTIDES AND METHODS OF USE” (Syngenta Participations AG, priority 2017, published 2020):
# Values joined by “and” are separate entries in the source; they are usually repeats but may differ in a detail not shown here. Equal entries are not always repeated.
# Columns and labels:
# Experiment in all cases: UDP-Glo glucosyl transferase assay, purified enzyme
# Format in all cases: biochemical
# [1] = target: T1, Zea mays bx9 glucosyl transferase (C-terminally his tagged SEQ ID NO: 1) (Zea mays, UniProt B4G072)
# T1 construct: His tag (C); made in house; host or cells: E. coli BL21 (DE3), pET24a
# T1 sequence (B4G072 1-462): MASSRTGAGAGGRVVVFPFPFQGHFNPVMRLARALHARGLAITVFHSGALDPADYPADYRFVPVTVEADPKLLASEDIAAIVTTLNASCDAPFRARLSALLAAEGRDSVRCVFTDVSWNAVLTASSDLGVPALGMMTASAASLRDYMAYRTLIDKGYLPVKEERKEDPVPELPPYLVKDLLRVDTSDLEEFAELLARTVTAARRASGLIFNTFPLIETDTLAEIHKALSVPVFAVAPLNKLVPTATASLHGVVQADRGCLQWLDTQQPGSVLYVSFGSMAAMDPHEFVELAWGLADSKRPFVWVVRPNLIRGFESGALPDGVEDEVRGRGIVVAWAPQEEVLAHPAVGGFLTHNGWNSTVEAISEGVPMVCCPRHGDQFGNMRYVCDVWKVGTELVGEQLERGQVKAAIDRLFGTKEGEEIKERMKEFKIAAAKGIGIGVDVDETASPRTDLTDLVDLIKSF
# Description: (§1) Glucosyl transferase activity is assayed via measurement of acceptor substrate-dependent production of UDP from ultrapure UDP-glucose using the Promega UDP-Glo™ method and according to the manufacturer's instructions. Assays are run in 96 well microtiter plates.
# (§2) Enzyme, typically at a stock concentration of ˜2 mg/ml is diluted to an appropriate concentration in 50 mM K^+ Hepes buffer at pH7.5 containing 0.5 mg/mL bovine serum albumin (BSA) and 5 ul aliquots of this diluted enzyme added to each well of a Perkin Elmer white ½ area 96 well plate. […] Assays are run for an appropriate time (usually 10 to 60 min) so that the amount of UDP formed lies within the most nearly linear part of the UDP standard curve and are stopped with the addition and mixing of 25 ul UDP-Glo™ detection reagent (prepared as described below). Plates are then incubated at room temperature for 60 minutes and then read in a luminescence plate reader (Perkin Elmer Envision 2130 Multilabel Reader). A UDP standard curve is run alongside each set of assays and reagent blank control assays run with DMSO in place of test herbicide. Typically, 300 pmol of UDP corresponds to a Relative Luminescence Unit (RLU) reading of about 1.5E7 and the response curve between 0 and 600 pmol is fitted to a polynomial function (see for example FIG. 2).
# The UDP-Glo™ reagents are made up and used according to the manufacturer's instructions. Thus, Nucleotide Detection Buffer and ATP are combined to make nucleotide detection reagent (NDR) dispensed into aliquots and frozen to be freshly thawed before use.
# Km and kcat values in respect of UDP-glucose are derived by carrying out experiments to measure initial rates over a suitable range of concentrations of UDP glucose out at a fixed near saturating concentration of acceptor substrate. Best fit values of kcat, Km and kcat/Km are obtained by direct fitting of the data to the Michaelis-Menten equation using Graphpad Prism™ software.
# [2] = target: T2, SEQ ID NO 22, mutant of Zea mays bx9 glucosyl transferase (Zea mays, UniProt B4G072, A334K/F21Y/M279F/S117V/T220P); conditions: lower block, concentration printed only in upper block: V 0.300, VII 0.210; IV, VIII, XI, XXI, XX, XVIII, XVI, XV, XIV 0.200; others 1.000 mM
# T2 construct: His tag (C); made in house
# [3] = target: T3, SEQ ID NO 21, mutant of Zea mays bx9 glucosyl transferase (Zea mays, UniProt B4G072, A334K/F21Y/L194V/M279F/S117V); conditions: lower block, concentration printed only in upper block: V 0.300, VII 0.210; IV, VIII, XI, XXI, XX, XVIII, XVI, XV, XIV 0.200; others 1.000 mM
# T3 construct: His tag (C); made in house
# [4] = target: T4, SEQ ID NO 17, zmBX9 S117V, M279F, A334K mutant (Zea mays, UniProt B4G072, A334K/M279F/S117V); conditions: herbicide mM: V 0.300, VI 0.250, VII 0.210; IV, VIII, XI, XXI, XX, XVIII, XVI, XV, XIV 0.200; others 1.000
# T4 construct: polypeptides were the C-terminally his-tagged; His tag (C); made in house
# [5] = target: T5, SEQ ID NO 19, mutant of Zea mays bx9 glucosyl transferase (Zea mays, UniProt B4G072, A281K/A334K/L194V/M279F/S117V); conditions: herbicide mM: V 0.300, VI 0.250, VII 0.210; IV, VIII, XI, XXI, XX, XVIII, XVI, XV, XIV 0.200; others 1.000
# T5 construct: His tag (C); made in house
# Description: as §1, §2
# (§3) The UDP-Glo™ reagents are made up and used according to the manufacturer's instructions. Thus, Nucleotide Detection Buffer and ATP are combined to make nucleotide detection reagent (NDR) dispensed into aliquots and frozen to be freshly thawed before use. […]
# (§4) Table 13 summarizes the results obtained from assays, run as described in Example 1, using a variety of alcohol and aminal PSII herbicides as substrates of the Zea mays bx9 w/t (i.e. C-terminally his tagged SEQ ID no 1) and various mutants of the same, selected from SEQ ID NO: 16-30). All of these proteins were C-terminally his-tagged, expressed and purified as described in Example 1. Assays were run and analyzed as described in example 1. It is seen that various of the mutations herein and combinations thereof led to significant improvements (over the w/t bx9 protein) in catalytic activity versus various of the herbicides and that these improvements are often of sufficient magnitude to be useful for conferring improved herbicide tolerance upon crop. This is especially the case given that even the unmutated w/t bx9 enzyme which has only modest glucosyl transferase activity (for example against compounds V and VI) was nevertheless adequately active to confer significant herbicide tolerance in the glass house (as shown in example 9) even without mutational improvement. It is also seen that particular mutations can lead to very much improved activity in respect of some chemistries but not to others but that, overall, there is at least one variant within the scope of the current invention that provides significant and useful improvement in tolerance to each of the chemistries tested.
# [6] = target: T6, SEQ ID NO 18, mutant of Zea mays bx9 glucosyl transferase (Zea mays, UniProt B4G072, A281K/A334K/F21Y/M279F/S117V); conditions: herbicide mM: V 0.300, VI 0.250, VII 0.210; IV, VIII, XI, XXI, XX, XVIII, XVI, XV, XIV 0.200; others 1.000
# T6 construct: His tag (C); made in house
# Description: as §1, §2, §3, §4
# [7] = target: T7, SEQ ID NO 23, mutant of Zea mays bx9 glucosyl transferase (Zea mays, UniProt B4G072, A334K/F21Y/L194C/M279F/S117V); conditions: lower block, concentration printed only in upper block: V 0.300, VII 0.210; IV, VIII, XI, XXI, XX, XVIII, XVI, XV, XIV 0.200; others 1.000 mM
# T7 construct: His tag (C); made in house
# Description: as §1, §2, §3, §4
# [8] = 0.5 mM UDP-glucose, 25 C, pH 7.5, DMSO reagent blank as control
# [9] = herbicide 0.500 mM, limit of detection about 0.001
# [10] = herbicide mM: V 0.300, VI 0.250, VII 0.210, IV, VIII, XI, XXI, XX, XVIII, XVI, XV, XIV 0.200, others 1.000
# [11] = control = inactive H24A mutant of bx9 (asterisk)
SMILES,"kcat [1, 8]","Activity [1, 9]","Activity [1, 10]",Activity [2],Activity [3],Activity [4],Activity [5],Activity [6],Activity [7],"kcat [1, 11]"
Cc1cnc(N2C(=O)N(C)CC2O)cc1C(F)(F)F (centres unmarked) [XVIII],0.0040 s⁻¹,0.002 pmol/sec/pmol enzyme,0.001 pmol/sec/pmol enzyme,0.933 pmol/sec/pmol enzyme,0.425 pmol/sec/pmol enzyme,0.231 pmol/sec/pmol enzyme,0.964 pmol/sec/pmol enzyme,0.898 pmol/sec/pmol enzyme,0.253 pmol/sec/pmol enzyme,
CN1CC(O)N(c2cc(C(F)(F)F)ccn2)C1=O (centres unmarked) [Compound V],0.012 s⁻¹ and 0.021 s⁻¹,0.005 pmol/sec/pmol enzyme,0.005 pmol/sec/pmol enzyme,1.221 pmol/sec/pmol enzyme,1.548 pmol/sec/pmol enzyme,0.565 pmol/sec/pmol enzyme,1.651 pmol/sec/pmol enzyme,1.582 pmol/sec/pmol enzyme,1.246 pmol/sec/pmol enzyme,0.0181 s⁻¹
CN1CC(O)N(c2cc(C(F)(F)F)c(Cl)cn2)C1=O (centres unmarked) [XI],,0.000 pmol/sec/pmol enzyme,0.000 pmol/sec/pmol enzyme,0.548 pmol/sec/pmol enzyme,0.374 pmol/sec/pmol enzyme,0.120 pmol/sec/pmol enzyme,0.898 pmol/sec/pmol enzyme,0.710 pmol/sec/pmol enzyme,0.227 pmol/sec/pmol enzyme,
CON1C(=O)N(c2cc(C(F)(F)F)ccn2)C(O)[C@@H]1C (some centres unmarked) [Compound VI],0.037 s⁻¹ and 0.044 s⁻¹,0.013 pmol/sec/pmol enzyme,0.012 pmol/sec/pmol enzyme,,,1.003 pmol/sec/pmol enzyme,,,,0.0430 s⁻¹
